Measured values from patent US12023330B2, “Use of manzamines as antiproliferative agent” (priority 2020, dated 2024).

Columns and labels:
[1] = tested on: cervical cancer cell lines (SiHa and CaSki); assay: Cell growth of manzamine-related compounds; format: cell-based, human
Method: (§1) Based on MoIN, the additional manzamine-related compounds such as manzamine D (2), manzamine F (3), 8-hydroxymanzamine A (4), and ircinal A (5) were tested for their biological activities targeting cervical cancer cell lines (SiHa and CaSki).
Cell Growth Kinetics. Cervical cancer cells (1×10^6) or HKc (2×10^5) were plated in 100 mm tissue culture petri dish or 6-well plates. Following overnight incubation, cells were treated with 2 μM or 4 μM concentrations of manzamine A (1) derivatives for different time points (24, 48 and 72 hours). Dimethyl sulphoxide (DMSO) was used as control. The cell proliferation activity was determined by cell counting under the microscope with a hemocytometer using trypan blue staining.

[2] = tested on: normal human keratinocytes (HKc); assay: Cell growth kinetics of normal keratinocytes; format: cell-based; details: 4 μM stated for compound 4; 48 h and 72 h; vs DMSO control
Method: as §1
Generation of Normal Human Keratinocytes (HKc). The generation and processing of normal HKc from de-identified foreskin tissue samples has previously been described in our studies, see Pirisi, L.; Yasumoto, S.; Feller, M.; Doniger, J.; DiPaolo, J. A. J. Virol. 1987, 61, 1061-1066, and was implemented with the following modifications: dispase was used in lieu of collagenase, and a trypsinization step was added to release the epidermal cells. Briefly, to generate normal HKc primary cultures, the foreskin tissue, free of subcutaneous tissue, was placed in 10% dispase in phosphate buffer saline (PBS) and incubated overnight at 37° C. The next day, the epidermis was separated from the dermis, and processed mechanically by shredding the tissue into smaller pieces that were then treated with Trypsin/EDTA for 10 minutes at 37° C. Following the addition of fetal bovine serum (10%) to stop the trypsin action, cells were collected by centrifugation and plated in keratinocytes serum free medium (KSFM).
Cell Growth Kinetics. […] The cell proliferation activity was determined by cell counting under the microscope with a hemocytometer using trypan blue staining.

Structure (SMILES)	effect on cervical cancer cell growth [1]	cell growth kinetics of normal HKc [2]
Oc1cccc2c1[nH]c1c(C3=C[C@@]4(O)CC/C=C\CCCCN5CC[C@@H]3[C@]3(C[C@@H]6/C=C\CCCCN6[C@H]34)C5)nccc12 [8-hydroxymanzamine A]	showed inhibition	inhibited significantly
O=CC1=C[C@@]2(O)CC/C=C\CCCCN3CC[C@@H]1[C@]1(CC4/C=C\CCCCN4[C@H]12)C3 (some centres unmarked) [ircinal A]	did not reveal any effect	
O[C@]12C=C(C3NCCc4c3[nH]c3ccccc43)[C@@H]3CCN(CCCC/C=C\CC1)C[C@@]31C[C@@H]3/C=C\CCCCN3[C@H]12 (some centres unmarked) [manzamine D]	did not reveal any effect	
O=C1CCCN2[C@@H](CC1)C[C@]13CN4CCCC/C=C\CC[C@](O)(C=C(c5nccc6c5[nH]c5c(O)cccc56)C1CC4)[C@H]23 (some centres unmarked) [manzamine F]	did not reveal any effect	
